Measured values: US6579708B1, “Human uridine kinase” (SmithKline Beecham Corporation, priority 2000, dated 2003)
Like-named read-outs stand apart in the source and are kept apart here.

B1: Human Uridine Kinase: novel human UDK gene product expressed in E.coli from pET 16b, purified by Ni-NTA affinity chromatography (protein)
chain: MASAGGEDCESPAPEADRPHQRPFLIGVSGGTASGKSTVCEKIMELLGQNEVEQRQRKVVILSQDRFYKVLTAEQKAKALKGQYNFDHPDAFDNDLMHRTLKNIVEGKTVEVPTYDFVTHSRLPETTVVYPADVVLFEGILVFYSQEIRDMFHLRLFVDTDSDVRLSRRVLRDVRRGRDLEQILTQYTTFVKPAFEEFCLPTKKYADVIIPRGVDNMVAINLIVQHIQDILNGDICKWHRGGSNGRSYKRTFSEPGDHPG
modifications: His tag from pET16b; Human

Legend:
uridine kinase [1] = details: cited from earlier work
uridine kinase [2] = details: cited from earlier work; remark: listed apart in the source
[3] = Characterization of recombinant His-tagged human uridine kinase expressed in E.coli; type: biochemical
From the text: The novel human UDK gene has been cloned into an expression vector pET 16b (Novagen) with a His tag at its NH2-terminus. The gene was expressed in E.coli and has been purified to >95% purity by Ni-NTA affinity chromatography.

Row | Molecule | Km (uridine kinase [1]; normal rat liver) [µM] | Km (uridine kinase [1]; rapidly growing hepatoma 3924A) [µM] | Km (uridine kinase [2]; normal ovary) [µM] | Km (uridine kinase [2]; ovarian carcinoma) [µM] | Optimum pH [3] | Specific Activity ([3]; purified enzyme, His tag at NH2-terminus) [nmol/min/mg protein] | enzymatic activity ([3]; with the His tag)
1 | O=c1ccn([C@@H]2O[C@H](CO)[C@@H](O)[C@H]2O)c(=O)[nH]1 [uridine] | 5000 | 800 | 11500 | 500 | – | – | –
2 | B1 | – | – | – | – | 9.0 | 678 | good enzymatic activity
